# Values quoted from earlier work in patent US20100260755A1, “IBUDILAST AND IMMUNOMODULATORS COMBINATION” (MediciNova, Inc., priority 2009, published 2010).
# How the values were obtained:
# [1] = test system: T-cells isolated from peripheral blood of MS patients; details: in vitro
# [2] = test system: multiple sclerosis patients; details: daily injections, exacerbating-remitting MS
# [3] = test system: experimental autoimmune encephalomyelitis; details: in vivo
substance,measurement,setting,value
Glatiramer acetate,"production of inflammatory mediators TNF-α, nitric oxide, superoxide by glial cells",glial cells,effectively suppress
same,IL-5 and IL-13 cytokine secretion,[1],induces
same,exacerbations versus control patients,[2],fewer exacerbations
same,increases in disability status versus control patients,[2],smaller increases
same,effect on experimental autoimmune encephalomyelitis (EAE),[3],suppress
